Values after ≈ are worked out from the molar mass of the structure shown. Read-outs that look alike come from different tables or passages of the source. Numbered stars: 1 amine (or outer) side, 2 acyl side, 3 side chain; on linkers, the order of the positions; unused ones are H or OH. Bridge positions count the residues as written; N and C are the ends. Square brackets hold non-standard residues; d marks the D form. Peptide text beside a SMILES is read from it. * marks the point of attachment. hTyr(3S-OH,4S-OH,3'-OSO3H) = N[C@H](C(=O)O)[C@H](O)[C@@H](O)c1ccc(O)c(OS(=O)(=O)O)c1; Orn(4R-OH,5R-OH) = O=C([C@H](C[C@@H](O)[C@@H](O)N[*:3])N[*:1])[*:2]; Pro(3S-OH,4S-Me) = C[C@H]1CN[C@H](C(=O)O)[C@H]1O; X1 = CCCCCOc1ccc(-c2cc(-c3ccc(C(=O)*)cc3)no2)cc1; Gln(3R-OH) = NC(=O)C[C@@H](O)[C@H](N)C(=O)O; Hyp = O=C(O)[C@@H]1C[C@@H](O)CN1
Tested on: C. albicans isolates
Test: Broth microdilution susceptibility (CLSI M27-A3) at different medium pH
Format: cell-based, Candida albicans
Conditions: for MIC range: 50% inhibition, 10 vaginal isolates; for MIC50 / MIC90 / MIC: Candida albicans, 24 h
Description: Ten strains each of C. glabrata and C. albicans vaginal isolates were tested. The strains were obtained from recent clinical trial patients with vulvovaginal candidiasis (VVC) prior to treatment. Candida strains were obtained from the Mycology Reference Library (MRL) at Case Western Reserve University School of Medicine, Ohio, United States.
Susceptibility testing was performed using a broth microdilution method, according to CLSI M27-A3 guidelines (CLSI. 2008. Reference Method for Broth Dilution Antifungal Susceptibility Testing of Yeasts; Approved Standard—Third Edition. Clinical and Laboratory Standards Institute, CLSI document M27-A3). Antifungals and concentrations tested were SCY-078 and micafungin (both at concentrations within the range of 0.015 to 8 μg/ml) and fluconazole (at concentrations within the range of 0.125 to 64 μg/ml). A 0.1-ml C. albicans and C. glabrata inoculum of 0.5-2.5×10^3 blastospores/ml in RPMI 1640 medium was added to each microdilution well. ATCC strains of Candida parapsilosis and Candida krusei QC isolates were also included concurrently to ensure quality control. Antifungal susceptibility testing was carried out for each isolate in RPMI 1640 at pH 7 (to mimic RPMI medium used in testing the susceptibility of yeast by the CLSI M-27A3 document), pH 5.7, and pH 4.5 (to mimic the pH of the vaginal cavity) by adjusting the pH of the media using NaOH or HCl. […] Agents Chemother., 43: 1383-1386 (1999).
[…] SCY-078 powder was manufactured by Avista, Laboratories, NC. Micafungin and fluconazole were sourced from LGM Pharma.

CCCCCOc1ccc(-c2cc(-c3ccc(C(=O)N[C@H]4C[C@@H](O)[C@@H](O)NC(=O)[C@@H]5[C@@H](O)[C@@H](C)CN5C(=O)[C@H]([C@H](O)CC(N)=O)NC(=O)[C@H]([C@H](O)[C@@H](O)c5ccc(O)c(OS(=O)(=O)O)c5)NC(=O)[C@@H]5C[C@@H](O)CN5C(=O)[C@H]([C@@H](C)O)NC4=O)cc3)no2)cc1 [Micafungin, reference compound] (X1-[Orn(4R-OH,5R-OH)]T[Hyp][hTyr(3S-OH,4S-OH,3'-OSO3H)][Gln(3R-OH)][Pro(3S-OH,4S-Me)]; lactam 1-C)
MIC range (pH 4.5, 24 h): 0.25 to 0.5 µg/mL | MIC range (pH 5.72, 24 h): 0.063 to 1 µg/mL | MIC range (pH 7.0, 24 h): 0.25 µg/mL (≈ 0.197 µM) | MIC50 (pH 4.5): 0.5 µg/mL (≈ 0.394 µM) | MIC90 (pH 4.5): 0.5 µg/mL (≈ 0.394 µM) | MIC (pH 4.5, read-out: MIC (50% inhibition), C. albicans MRL 34366, pH 4.5, 24 hours): 0.5 µg/mL (≈ 0.394 µM) | MIC (pH 4.5, read-out: MIC (50% inhibition), C. albicans MRL 34367, pH 4.5, 24 hours): 0.5 µg/mL (≈ 0.394 µM) | MIC (pH 4.5, read-out: MIC (50% inhibition), C. albicans MRL 34372, pH 4.5, 24 hours): 0.5 µg/mL (≈ 0.394 µM) | MIC (pH 4.5, read-out: MIC (50% inhibition), C. albicans MRL 34373, pH 4.5, 24 hours): 0.5 µg/mL (≈ 0.394 µM) | MIC (pH 4.5, read-out: MIC (50% inhibition), C. albicans MRL 34374, pH 4.5, 24 hours): 0.5 µg/mL (≈ 0.394 µM) | MIC (pH 4.5, read-out: MIC (50% inhibition), C. albicans MRL 34385, pH 4.5, 24 hours): 0.5 µg/mL (≈ 0.394 µM) | MIC (pH 4.5, read-out: MIC (50% inhibition), C. albicans MRL 34389, pH 4.5, 24 hours): 0.5 µg/mL (≈ 0.394 µM) | MIC (pH 4.5, read-out: MIC (50% inhibition), C. albicans MRL 34399, pH 4.5, 24 hours): 0.5 µg/mL (≈ 0.394 µM) | MIC (pH 4.5, read-out: MIC (50% inhibition), C. albicans MRL 34408, pH 4.5, 24 hours): 0.25 µg/mL (≈ 0.197 µM) | MIC (pH 4.5, read-out: MIC (50% inhibition), C. albicans MRL 34449, pH 4.5, 24 hours): 0.5 µg/mL (≈ 0.394 µM) | MIC50 (pH 5.72): 1 µg/mL (≈ 0.787 µM) | MIC90 (pH 5.72): 1 µg/mL (≈ 0.787 µM) | MIC (pH 5.72, read-out: MIC (50% inhibition), C. albicans MRL 34366, pH 5.72, 24 hours): 0.5 µg/mL (≈ 0.394 µM) | MIC (pH 5.72, read-out: MIC (50% inhibition), C. albicans MRL 34367, pH 5.72, 24 hours): 0.5 µg/mL (≈ 0.394 µM) | MIC (pH 5.72, read-out: MIC (50% inhibition), C. albicans MRL 34372, pH 5.72, 24 hours): 1 µg/mL (≈ 0.787 µM) | MIC (pH 5.72, read-out: MIC (50% inhibition), C. albicans MRL 34373, pH 5.72, 24 hours): 1 µg/mL (≈ 0.787 µM) | MIC (pH 5.72, read-out: MIC (50% inhibition), C. albicans MRL 34374, pH 5.72, 24 hours): 1 µg/mL (≈ 0.787 µM) | MIC (pH 5.72, read-out: MIC (50% inhibition), C. albicans MRL 34385, pH 5.72, 24 hours): 1 µg/mL (≈ 0.787 µM) | MIC (pH 5.72, read-out: MIC (50% inhibition), C. albicans MRL 34389, pH 5.72, 24 hours): 1 µg/mL (≈ 0.787 µM) | MIC (pH 5.72, read-out: MIC (50% inhibition), C. albicans MRL 34399, pH 5.72, 24 hours): 1 µg/mL (≈ 0.787 µM) | MIC (pH 5.72, read-out: MIC (50% inhibition), C. albicans MRL 34408, pH 5.72, 24 hours): 0.063 µg/mL (≈ 0.0496 µM) | MIC (pH 5.72, read-out: MIC (50% inhibition), C. albicans MRL 34449, pH 5.72, 24 hours): 0.25 µg/mL (≈ 0.197 µM) | MIC50 (pH 7): 0.25 µg/mL (≈ 0.197 µM) | MIC90 (pH 7): 0.25 µg/mL (≈ 0.197 µM) | MIC (pH 7, read-out: MIC (50% inhibition), C. albicans MRL 34366, pH 7.0, 24 hours): 0.25 µg/mL (≈ 0.197 µM) | MIC (pH 7, read-out: MIC (50% inhibition), C. albicans MRL 34367, pH 7.0, 24 hours): 0.25 µg/mL (≈ 0.197 µM) | MIC (pH 7, read-out: MIC (50% inhibition), C. albicans MRL 34372, pH 7.0, 24 hours): 0.25 µg/mL (≈ 0.197 µM) | MIC (pH 7, read-out: MIC (50% inhibition), C. albicans MRL 34373, pH 7.0, 24 hours): 0.25 µg/mL (≈ 0.197 µM) | MIC (pH 7, read-out: MIC (50% inhibition), C. albicans MRL 34374, pH 7.0, 24 hours): 0.25 µg/mL (≈ 0.197 µM) | MIC (pH 7, read-out: MIC (50% inhibition), C. albicans MRL 34385, pH 7.0, 24 hours): 0.25 µg/mL (≈ 0.197 µM) | MIC (pH 7, read-out: MIC (50% inhibition), C. albicans MRL 34389, pH 7.0, 24 hours): 0.25 µg/mL (≈ 0.197 µM) | MIC (pH 7, read-out: MIC (50% inhibition), C. albicans MRL 34399, pH 7.0, 24 hours): 0.25 µg/mL (≈ 0.197 µM) | MIC (pH 7, read-out: MIC (50% inhibition), C. albicans MRL 34408, pH 7.0, 24 hours): 0.25 µg/mL (≈ 0.197 µM) | MIC (pH 7, read-out: MIC (50% inhibition), C. albicans MRL 34449, pH 7.0, 24 hours): 0.25 µg/mL (≈ 0.197 µM)

Reference: patent US20260000656A1, “ANTIFUNGAL AGENTS WITH ENHANCED ACTIVITY IN ACIDIC PH” (Scynexis, Inc., priority 2017, published 2026)
